Experimental data taken from patent US6844353B2, “Fungicidal properties of sampangine and its analogs to agriculturally important fungal plant pathogens” (The United States of America as represented by the …, priority 2003, dated 2005).
Read-outs that look alike come from different tables or passages of the source.

Columns and labels:
Assay in all cases: 96-well microtiter plate assay, fungal growth inhibition
[1] = system: F. oxysporum; format: cell-based, Fusarium oxysporum; conditions: for Percent inhibition−Percent Stimulation±SEM: F. oxysporum; for inhibition at 0.3 µM / inhibition at 3 µM / inhibition at 30 µM: Fusarium oxysporum, read-out: Percent inhibition−Percent Stimulation±SEM
Source text: (§1) Pathogen production. Isolates of Colletotrichum acutatum Simmonds, Colletotrichum fragariae Brooks, and Colletotrichum gloeosporioides (Penz.) Penz. & Sacc. in Penz. were obtained from B. J. Smith, USDA, ARS, Small Fruit Research Station, Poplarville, Miss. Colletotrichum fragariae (isolate CF63), C. acutatum (isolate CAGoff), and C. gloeosporioides (isolate CG162) were used for all pathogen and bioautography studies. Isolate CF63 is one of the most virulent isolates at infecting strawberry plants and inducing both crown and fruit rot (Smith and Black, 1990). CF63, CAGoff, and CG162 were used as standard test isolates because of our extensive knowledge of these isolates and their known fungicide sensitivity profiles in both bioautography and microtiter formats. The three Colletotrichum species were isolated from strawberry (Fragaria x ananassa Duchesne). Botrytis cinerea Pers.: Fr, was isolated from commercial grape (Vitis vinifera L.) and Fusarium oxysporum Schlechtend: Fr from orchid (Cynoches sp.). Phomopsis viticola (Sacc.) and P. obscurans (Ellis & Everh.) Sutton were from Mike A. Ellis, Ohio State University, Wooster, Ohio. Fungi were grown on potato-dextrose agar (PDA, Difco, Detroit, Mich.) in 9 cm petri dishes and incubated in a growth chamber at 24±2° C. and under cool-white fluorescent lights ([…]·m^−2·sec^−1 light) with 12 hour photoperiod.
(§2) Inoculum preparation. Conidia were harvested from 7-10 day-old cultures by flooding plates with 5 mL of sterile distilled water and dislodging conidia by softly brushing the colonies with an L-shaped glass rod. Conidial suspensions were filtered through sterile miracloth (Calbiochem-Novabiochem Corp., La Jolla, Calif.) to remove mycelia. Conidia concentrations were determined photometrically, from a standard curve based on the percent of transmittance (% T) at 625 nm and suspensions were then adjusted with sterile distilled water to a concentration of 1.0×10^6 conidia/mL.
(§3) Microtiter assay. A standardized 96-well microtiter plate assay developed for discovery of natural product fungicidal agents was used to evaluate naturally occurring antifungal agents from Macaranga monanara. A 96-well microtiter assay was used to determine sensitivity of B. cinerea, C. acutatum, C. fragariae, C. gloeosporioides, F. oxysporum, Phomopsis viticola, and P. obscurans to the various antifungal agents in comparison with known fungicidal standards. Vinclozolin, captan, and thiabendazole, which represent three different modes of action, were used as standards in this experiment. Each fungus was challenged in a dose-response format using test compounds where the final treatment concentrations were 0.3, 3.0 and 30.0 μM. Microtiter plates (Nunc MicroWell, untreated; Roskilde, Denmark) were covered with a plastic lid and incubated in a growth chamber as described previously for fungal growth. Growth was then evaluated by measuring absorbance of each well at 620 nm using a microplate photometer (Packard Spectra Count, Packard Instrument Co., Downers Grove, Ill.). Microtiter plates (Nunc MicroWell, untreated; Roskilde, Denmark) were covered with a plastic lid and incubated in a growth chamber at 24±1° C. and 12 hour photoperiod under 60±5 μmol light. Growth was then evaluated by measuring absorbance of each well at 620 nm using a microplate photometer (Packard Spectra Count, Packard Instrument Co., Downers Grove, Ill.).
(§4) Microbioassy Experimental Design. Chemical sensitivity each of B. cinerea, C. acutatum, C. fragariae, C. gloeosporiodes, F. oxysporum, Phomopsis viticola, and P. obscurans was evaluated using 96-well plate microbioassay format. Each chemical was evaluated in duplicate at each dose (0.3, 3.0 and 30.0 μM). […]

[2] = system: C. gloeosporioides; format: cell-based, Colletotrichum gloeosporioides; conditions: for Percent inhibition−Percent Stimulation±SEM: C. gloeosporioides; for inhibition at 0.3 µM / inhibition at 3 µM / inhibition at 30 µM: Colletotrichum gloeosporioides, read-out: Percent inhibition−Percent Stimulation±SEM
Source text: as §1, §2, §3, §4

[3] = system: C. fragariae; format: cell-based, Colletotrichum fragariae; conditions: for Percent inhibition−Percent Stimulation±SEM: C. fragariae; for inhibition at 0.3 µM / inhibition at 3 µM / inhibition at 30 µM: Colletotrichum fragariae, read-out: Percent inhibition−Percent Stimulation±SEM
Source text: as §1, §2, §3, §4

[4] = system: C. acutatum; format: cell-based, Colletotrichum acutatum; conditions: for Percent inhibition−Percent Stimulation±SEM: C. acutatum; for inhibition at 0.3 µM / inhibition at 3 µM / inhibition at 30 µM: Colletotrichum acutatum, read-out: Percent inhibition−Percent Stimulation±SEM
Source text: as §1, §2, §3, §4

[5] = system: B. cinerea; format: cell-based, Botrytis cinerea; conditions: for Percent inhibition−Percent Stimulation±SEM: B. cinerea; for inhibition at 0.3 µM / inhibition at 3 µM / inhibition at 30 µM: Botrytis cinerea, read-out: Percent inhibition−Percent Stimulation±SEM
Source text: as §1, §2, §3, §4

SMILES: CO/N=C(/C(=O)OC)c1ccccc1COc1ccccc1C [BAS 490]
- Percent inhibition−Percent Stimulation±SEM ([1]; 0.3 μM, 48 hrs): −82.3 ± 3.0%
- Percent inhibition−Percent Stimulation±SEM ([1]; 0.3 μM, 72 hrs): −30.3 ± 6.9%
- Percent inhibition−Percent Stimulation±SEM ([1]; 3.0 μM, 48 hrs): −92.7 ± 0.6%
- Percent inhibition−Percent Stimulation±SEM ([1]; 3.0 μM, 72 hrs): −65.5 ± 1.6%
- Percent inhibition−Percent Stimulation±SEM ([1]; 30 μM, 48 hrs): −94.7 ± 0.5%
- Percent inhibition−Percent Stimulation±SEM ([1]; 30 μM, 72 hrs): −69.5 ± 2.0%
- Percent inhibition−Percent Stimulation±SEM ([2]; 0.3 μM, 48 hrs): −83.3 ± 3.2%
- Percent inhibition−Percent Stimulation±SEM ([2]; 0.3 μM, 72 hrs): −58.7 ± 5.0%
- Percent inhibition−Percent Stimulation±SEM ([2]; 3.0 μM, 48 hrs): −92.4 ± 1.5%
- Percent inhibition−Percent Stimulation±SEM ([2]; 3.0 μM, 72 hrs): −82.6 ± 3.4%
- Percent inhibition−Percent Stimulation±SEM ([2]; 30 μM, 48 hrs): −97.5 ± 1.0%
- Percent inhibition−Percent Stimulation±SEM ([2]; 30 μM, 72 hrs): −89.7 ± 1.9%
- Percent inhibition−Percent Stimulation±SEM ([3]; 0.3 μM, 48 hrs): −68.8 ± 7.1%
- Percent inhibition−Percent Stimulation±SEM ([3]; 0.3 μM, 72 hrs): −35.6 ± 5.6%
- Percent inhibition−Percent Stimulation±SEM ([3]; 3.0 μM, 48 hrs): −86.4 ± 3.5%
- Percent inhibition−Percent Stimulation±SEM ([3]; 3.0 μM, 72 hrs): −71.9 ± 3.5%
- Percent inhibition−Percent Stimulation±SEM ([3]; 30 μM, 48 hrs): −91.5 ± 1.7%
- Percent inhibition−Percent Stimulation±SEM ([3]; 30 μM, 72 hrs): −80.4 ± 1.4%
- Percent inhibition−Percent Stimulation±SEM ([4]; 0.3 μM, 48 hrs): −63.9 ± 3.8%
- Percent inhibition−Percent Stimulation±SEM ([4]; 0.3 μM, 72 hrs): −17.8 ± 3.5%
- Percent inhibition−Percent Stimulation±SEM ([4]; 3.0 μM, 48 hrs): −93.1 ± 0.6%
- Percent inhibition−Percent Stimulation±SEM ([4]; 3.0 μM, 72 hrs): 14.7 ± 2.5%
- Percent inhibition−Percent Stimulation±SEM ([4]; 30 μM, 48 hrs): −95.1 ± 0.7%
- Percent inhibition−Percent Stimulation±SEM ([4]; 30 μM, 72 hrs): −69.9 ± 2.6%
- Percent inhibition−Percent Stimulation±SEM ([5]; 0.3 μM, 48 hrs): −71.3 ± 28.0%
- Percent inhibition−Percent Stimulation±SEM ([5]; 0.3 μM, 72 hrs): −66.6 ± 21.5%
- Percent inhibition−Percent Stimulation±SEM ([5]; 3.0 μM, 48 hrs): −24.0 ± 32.0%
- Percent inhibition−Percent Stimulation±SEM ([5]; 3.0 μM, 72 hrs): −37.2 ± 20.2%
- Percent inhibition−Percent Stimulation±SEM ([5]; 30 μM, 48 hrs): −60.1 ± 32.9%
- Percent inhibition−Percent Stimulation±SEM ([5]; 30 μM, 72 hrs): −40.9 ± 17.6%

SMILES: CCCCNC(=O)n1c(NC(=O)OC)nc2ccccc21 [Benomyl]
- inhibition at 0.3 µM ([1]; 48 h): 3.3 ± 4.7%
- inhibition at 3 µM ([1]; 48 h): 12 ± 3%
- inhibition at 30 µM ([1]; 48 h): 86.3 ± 1.6%
- inhibition at 0.3 µM ([1]; 72 h): -1.6 ± 3.2%
- inhibition at 3 µM ([1]; 72 h): 0.8 ± 3.5%
- inhibition at 30 µM ([1]; 72 h): 77.2 ± 2.3%
- inhibition at 0.3 µM ([2]; 48 h): 47.5 ± 9.2%
- inhibition at 3 µM ([2]; 48 h): 84.2 ± 3.8%
- inhibition at 30 µM ([2]; 48 h): 82.4 ± 4%
- inhibition at 0.3 µM ([2]; 72 h): 16.1 ± 6.5%
- inhibition at 3 µM ([2]; 72 h): 59.9 ± 9.6%
- inhibition at 30 µM ([2]; 72 h): 44.8 ± 8.6%
- inhibition at 0.3 µM ([3]; 48 h): 51.5 ± 5%
- inhibition at 3 µM ([3]; 48 h): 89.6 ± 1.2%
- inhibition at 30 µM ([3]; 48 h): 92.4 ± 1.1%
- inhibition at 0.3 µM ([3]; 72 h): 36.8 ± 4.4%
- inhibition at 3 µM ([3]; 72 h): 92.7 ± 1%
- inhibition at 30 µM ([3]; 72 h): 94.3 ± 0.9%
- inhibition at 0.3 µM ([4]; 48 h): 24.6 ± 6.1%
- inhibition at 3 µM ([4]; 48 h): 20.3 ± 4.8%
- inhibition at 30 µM ([4]; 48 h): 16.6 ± 6.3%
- inhibition at 0.3 µM ([4]; 72 h): -7.7 ± 6.6%
- inhibition at 3 µM ([4]; 72 h): 47.7 ± 4.1%
- inhibition at 30 µM ([4]; 72 h): -15.2 ± 3.7%
- inhibition at 0.3 µM ([5]; 48 h): 50 ± 26.9%
- inhibition at 3 µM ([5]; 48 h): 21.6 ± 27.3%
- inhibition at 30 µM ([5]; 48 h): 39.9 ± 20.4%
- inhibition at 0.3 µM ([5]; 72 h): 71.2 ± 25.1%
- inhibition at 3 µM ([5]; 72 h): 40.9 ± 22%
- inhibition at 30 µM ([5]; 72 h): 47.3 ± 14.9%
